Here are results for four molecules from patent US5212185A, “Piperidinyl-terminated alkylamino ethynyl alanine amino diol compounds for treatment of hypertension” (G. D. Searle & Co., priority 1992, dated 1993).

The target in one assay is T1, human renin (Homo sapiens, UniProt P00797).
T1 construct: purchased National Institute for Biological Standards, London
T1 sequence (P00797 67-406): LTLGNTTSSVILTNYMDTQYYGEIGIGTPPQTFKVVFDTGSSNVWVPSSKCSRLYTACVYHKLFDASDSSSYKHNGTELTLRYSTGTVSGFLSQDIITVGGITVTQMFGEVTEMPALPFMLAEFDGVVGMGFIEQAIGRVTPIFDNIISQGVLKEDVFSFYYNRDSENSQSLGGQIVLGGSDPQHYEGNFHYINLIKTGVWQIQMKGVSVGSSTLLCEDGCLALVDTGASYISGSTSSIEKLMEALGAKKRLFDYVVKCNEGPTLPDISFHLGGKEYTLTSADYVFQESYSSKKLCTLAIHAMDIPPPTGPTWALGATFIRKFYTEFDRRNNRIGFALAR
As to the kind of experiment: Human Renin Inhibition in vitro (angiotensin I generation by radioimmunoassay). To be noted: pH 7.4, 37° C., two hours, human plasma. In kind it is biochemical. The procedure:
Compounds of Formula I were evaluated as inhibitors of human renin in an in vitro assay, as follows: This human renin inhibition test has been previously described in detail [Papaioannou et al., Clinical and Experimental Hypertension, A7(9), 1243-1257 (1985)]. Human renin was obtained from the National Institute for Biological Standards, London. An incubation mixture was prepared containing the following components: in a total volume of 0.25 mL: 100 mM Tris-acetate buffer at pH 7.4, 25×10^-6 Goldblatt units of renin, 0.05 mL of plasma from human volunteers taking oral contraceptives, 6.0 mM Na-EDTA, 2.4 mM phenylmethyl sulfonyl fluoride, 1.5 mM 8-hydroxyquinoline, 0.4 mg/mL bovine serum albumin (BSA), and 0.024 mg/mL neomycin sulfate. This mixture was incubated for two hours at 37° C. in the presence or absence of renin inhibitors. The produced angiotensin I was determined by radioimmunoassay (New England Nuclear kit). Test compounds to be assayed were dissolved in DMSO and diluted with 100mM Tris-acetate buffer at pH 7.4 containing 0.5% BSA to the appropriate concentration. The final concentration of organic solvent in the reaction mixture was less than 1%. Control incubations at 37° C. were used to correct for effects of organic solvent on renin activity.

A further assay concerns pepsin. The following applies: cited from earlier work.
The next assay concerns cathepsin D. The following applies: cited from earlier work.
The test system of the next assay is renin. The following applies: cited from earlier work.
The subject of a further assay is hog renin. To be noted: after the injection of hog renin into nephrectomized rats; cited from earlier work.
A further assay concerns acid proteases. The following applies: cited from earlier work.

Square brackets hold non-standard residues; d marks the D form. Peptide text beside a SMILES is read from it. * marks the point of attachment. Sta = CC(C)C[C@H](N)[C@@H](O)CC(=O)O; Isovaleryl = CC(C)CC(=O)*

With `C#CC[C@H](NC(=O)[C@@H](CC(=O)N(C)CCN1CCCCC1)Cc1ccccc1)C(=O)N[C@@H](CC1CCCCC1)[C@@H](O)[C@@H](O)CC(C)C` [Example 1], the IC50 (as a rule, the point on the concentration scale where inhibition reaches its midpoint) on human renin was determined as 830 pM.
Turning to `C#CC[C@H](NC(=O)[C@@H](CC(=O)N(C)CCN1Cc2ccccc2C1)Cc1ccccc1)C(=O)N[C@@H](CC1CCCCC1)[C@@H](O)[C@@H](O)CC(C)C` [Example 2], it took 560 pM to reach half-maximal inhibition at human renin (IC50).
`C#CC[C@H](NC(=O)[C@@H](CC(=O)N(C)CCN1CC2CCC(CC2)C1)Cc1ccccc1)C(=O)N[C@@H](CC1CCCCC1)[C@@H](O)[C@@H](O)CC(C)C` [Example 3] registered an IC50 against human renin of 1200 pM.
Take `CC(C)CC(=O)N[C@H](C(=O)N[C@H](C(=O)N[C@@H](CC(C)C)[C@@H](O)CC(=O)N[C@@H](C)C(=O)N[C@@H](CC(C)C)[C@@H](O)CC(=O)O)C(C)C)C(C)C` [pepstatin] (Isovaleryl-VV[Sta]A[Sta]-OH): in the assay with pepsin, the inhibition of pepsin result is listed as “inhibitor of aspartyl proteases such as pepsin”. Besides, in the assay with cathepsin D, the “inhibition of cathepsin D” value was “inhibitor of aspartyl proteases such as pepsin, cathepsin D”. In the assay with renin, the inhibition of renin result is “inhibitor of aspartyl proteases such as pepsin, cathepsin D and renin”. Further, in the assay on hog renin, the “reduce blood pressure in vivo” value is given as “found to reduce blood pressure in vivo”. Moreover, the “inhibiting acid proteases in addition to renin” value in the assay with acid proteases is listed as “inhibiting acid proteases in addition to renin”.
